# What was measured:
# in vivo = settings: rat, 10 mg/kg
# Description: Method: Adult male Sprague/Dawley rats (anesthetized with ethylcarbamate) were given intra-rectal aqueous microenemas. Microenemas are defined as small volume (0.3 ml) aqueous solutions containing drug/adjuvant compounds, administered with a 1 cc syringe at an intra-rectal depth of 2.5 cm. Bioavailabilities versus intravenous administration were calculated as a measure of drug delivery according to the following formula: [formula] wherein
# [1] = rat, in vivo; for % Bioavailability ± SEM, Gentamicin: 90 min
# Description: (§1) Microenemas are defined as small volume (0.3 ml) aqueous solutions containing drug/adjuvant compounds, administered with a 1 cc syringe at an intra-rectal depth of 2.5 cm.
# The cefoxitin or gentamicin was administered as sodium cefoxitin or gentamicin sulfate at 10 mg/kg body weight. The adjuvants were administered at 20 mg/kg body weight and n represents the number of animals.
# [2] = rat, in vivo, 10 mg/kg, 1.5 h
# Description: as §1
# AUC means area under serum drug level curve from t=0 minutes to t=90 minutes.
# Gentamicin bioavailability: Concentration curves for chlorpromazine and perphenazine in rat microenema rectal delivery system.
Molecule,"% Bioavailability ± SEM, Gentamicin [1] [%]",further results
"CO[C@@]1(NC(=O)Cc2cccs2)C(=O)N2C(C(=O)O)=C(COC(N)=O)CS[C@@H]21 [Cefoxitin, (6R-cis)-3-[[(Aminocarbonyloxy]methyl]-7-methoxy-8-oxo-7-[(2-thienylacetyl))amino]-5-thia-1-azabicyclo [4.2.0]oct-2-ene-2-carboxylic acid]",–,bioavailability at 1.5 h (in vivo): 2 ± 0.6%
"CN(C)CCCN1c2ccccc2Sc2ccc(Cl)cc21 [Chlorpromazine, chlorpromazine]",107 ± 6.2,–
Gentamicin,–,"% Bioavailability ± SEM, Gentamicin (adjuvant: None) ([1]; 10 mg/kg, 1.5 h): 1 ± 0.7%; Control bioavailability (without adjuvant) [2]: 1 ± 0.7%"

# Continued, in another order:
"% Bioavailability ± SEM, Gentamicin [1] [%]",Molecule,further results
100 ± 8.3,"OCCN1CCN(CCCN2c3ccccc3Sc3ccc(Cl)cc32)CC1 [Perphenazine, perphenazine]",–
76 ± 10.9,CN1CCN(CCCN2c3ccccc3Sc3ccc(Cl)cc32)CC1 [Prochlorperazine],–
115 ± 11.5,"CSc1ccc2c(c1)N(CCC1CCCCN1C)c1ccccc1S2 (stereo not shown) [Tiorioazine, thioridazine]",–
